Source: patent US12655116B2, “Substituted isophthalic acid diamides” (Bayer Aktiengesellschaft, priority 2020, dated 2026)

Tests used:
ABUTH [1] = experiment: Pre-emergence herbicidal action against ABUTH; type: in vivo, Abutilon theophrasti; settings: for Pre-emergence action against ABUTH (herbicidal activity): 80 g/ha, scored visually after 3 weeks vs untreated controls (100% = plants have died, 0% = like control plants); for Pre-emergence action against ABUTH (herbicidal activity in percent): dosage 20 g/ha, scored visually after 3 weeks vs untreated controls, 100% = plants have died, 0% = like control plants
How it was run: (§1)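 Greenhouse pots of sandy loam held seeds covered with soil, onto which the compound was applied before emergence. An aqueous suspension or emulsion of WP or EC was used at 600 to 800 l/ha with 0.2% wetting agent. Percent damage was judged visually at 3 weeks.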

ECHCG [2] = experiment: Post-emergence herbicidal action against ECHCG; type: in vivo, Echinochloa crus-galli
How it was run: (§2)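 A WP or EC formulation diluted in water with 0.2% wetting agent was sprayed at 600 to 800 l/ha onto one-leaf-stage plants grown in sandy loam. About 3 weeks later, action was rated visually in percent, 100% being dead plants.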

VIOTR [3] = experiment: Pre-emergence herbicidal action against VIOTR; type: in vivo, Viola tricolor
How it was run: as §1

AVEFA [4] = experiment: Post-emergence herbicidal action against AVEFA; type: in vivo, Avena fatua; settings: visual assessment about 3 weeks after treatment, 100% = plants have died, 0% = like control plants
How it was run: as §2

DIGSA [5] = experiment: Post-emergence herbicidal action against DIGSA; type: in vivo, Digitaria sanguinalis; settings: 20 g/ha
How it was run: as §2

PHBPU [6] = experiment: Post-emergence herbicidal action against PHBPU; type: in vivo, Pharbitis purpurea; settings: dosage 20 g/ha
How it was run: as §2

AMARE [7] = experiment: Pre-emergence herbicidal action against AMARE; type: in vivo, Amaranthus retroflexus
How it was run: as §1

AVEFA [8] = experiment: Pre-emergence herbicidal action against AVEFA; type: in vivo, Avena fatua; settings: for Pre-emergence action against AVEFA in %: 80 g/ha
How it was run: as §1

ABUTH [9] = experiment: Post-emergence herbicidal action against ABUTH; type: in vivo, Abutilon theophrasti; settings: visual assessment about 3 weeks after treatment vs untreated controls
How it was run: as §2

POLCO = experiment: Pre-emergence herbicidal action against POLCO; type: in vivo, Polygonum convolvulus; settings: dosage 80 g/ha
How it was run: as §1

MATIN [10] = experiment: Pre-emergence herbicidal action against MATIN; type: in vivo, Matricaria inodora
How it was run: as §1

VERPE [11] = experiment: Pre-emergence herbicidal action against VERPE; type: in vivo, Veronica persica; settings: dosage 80 g/ha
How it was run: as §1

DIGSA [12] = experiment: Pre-emergence herbicidal action against DIGSA; type: in vivo, Digitaria sanguinalis
How it was run: as §1

MATIN [13] = experiment: Post-emergence herbicidal action against MATIN; type: in vivo, Matricaria inodora; settings: dosage 20 g/ha
How it was run: as §2

SETVI [14] = experiment: Pre-emergence herbicidal action against SETVI; type: in vivo, Setaria viridis
How it was run: as §1

ECHCG [15] = experiment: Pre-emergence herbicidal action against ECHCG; type: in vivo, Echinochloa crus-galli
How it was run: as §1

ALOMY [16] = experiment: Pre-emergence herbicidal action against ALOMY; type: in vivo, Alopecurus myosuroides; settings: 80 g/ha, pre-emergence, scored visually after 3 weeks vs untreated controls (100% = plants have died, 0% = like control plants)
How it was run: as §1

SETVI [17] = experiment: Post-emergence herbicidal action against SETVI; type: in vivo, Setaria viridis
How it was run: as §2

AMARE [18] = experiment: Post-emergence herbicidal action against AMARE; type: in vivo, Amaranthus retroflexus; settings: 20 g/ha, visual assessment about 3 weeks after treatment, 100% = plants have died, 0% = like control plants
How it was run: as §2

VIOTR [19] = experiment: Post-emergence herbicidal action against VIOTR; type: in vivo, Viola tricolor
How it was run: as §2

PHBPU [20] = experiment: Pre-emergence herbicidal action against PHBPU; type: in vivo, Pharbitis purpurea; settings: dosage 80 g/ha
How it was run: as §1

ALOMY [21] = experiment: Post-emergence herbicidal action against ALOMY; type: in vivo, Alopecurus myosuroides; settings: dosage 20 g/ha, visual assessment about 3 weeks after treatment vs untreated controls
How it was run: as §2

VERPE [22] = experiment: Post-emergence herbicidal action against VERPE; type: in vivo, Veronica persica; settings: 20 g/ha
How it was run: as §2

[23] = 20 g/ha, scored visually after 3 weeks vs untreated controls, 100% = plants have died, 0% = like control plants
[24] = 80 g/ha, scored visually after 3 weeks vs untreated controls (100% = plants have died, 0% = like control plants)

Row | SMILES | Pre-emergence action against ABUTH (herbicidal activity) (ABUTH [1]) | Pre-emergence action against ABUTH (herbicidal activity in percent) (ABUTH [1]) | Post-emergence action against ECHCG in % (ECHCG [2]; dosage 5 g/ha) | Post-emergence action against ECHCG in % (ECHCG [2]; dosage 20 g/ha) | Pre-emergence action against VIOTR in % (VIOTR [3]; dosage 20 g/ha) | Pre-emergence action against VIOTR in % (VIOTR [3]; dosage 80 g/ha) | Post-emergence action at 20 g/ha against AVEFA in % (AVEFA [4]) | Post-emergence action against DIGSA (DIGSA [5]) | Post-emergence action against PHBPU in % (PHBPU [6]) | Pre-emergence action against AMARE in % (AMARE [7]; [23]) | Pre-emergence action against AMARE in % (AMARE [7]; [24]) | Pre-emergence action against AVEFA in % (AVEFA [8]) | Post-emergence action against ABUTH in % (ABUTH [9]; dosage 5 g/ha) | Post-emergence action against ABUTH in % (ABUTH [9]; dosage 20 g/ha) | Pre-emergence action against MATIN in % (MATIN [10]; dosage 20 g/ha) | Pre-emergence action against MATIN in % (MATIN [10]; dosage 80 g/ha) | Pre-emergence action against VERPE in % (VERPE [11]) | Pre-emergence action against DIGSA in % (DIGSA [12]; dosage 20 g/ha) | Pre-emergence action against SETVI in % (SETVI [14]; dosage 80 g/ha) | Pre-emergence action against ECHCG in % (ECHCG [15]; 80 g/ha) | also measured
1 | CCn1nnnc1NC(=O)c1ccc(C(F)(F)F)c(C(=O)NCC2CC2)c1C [Example 2-28] | 100% | 100% | 80% | 80% | 100% | 100% | 90% | 80% | 80% | 100% | 100% | 90% | 80% | 80% | 100% | 100% | 80% | 100% | 100% | 100% | Post-emergence action at 5 g/ha against AVEFA in % (AVEFA [4]; 5 g/ha): 80%; Pre-emergence action against POLCO in % (POLCO): 90%; Pre-emergence action against DIGSA in % (DIGSA [12]; dosage 80 g/ha): 100%; Post-emergence action against MATIN in % (MATIN [13]): 80%; Pre-emergence action against ECHCG in % (ECHCG [15]; 20 g/ha): 80%; Pre-emergence action against ALOMY (herbicidal activity) (ALOMY [16]): 90%
2 | CCn1nnnc1NC(=O)c1ccc(C(F)F)c(C(=O)NCC(F)F)c1SC [Example 2-92] | 100% | 100% | 80% | 100% | 90% | 100% | 80% | – | 90% | 100% | 100% | 80% | 80% | 90% | 100% | 100% | 100% | – | 100% | 100% | Post-emergence action against SETVI in % (SETVI [17]; dosage 5 g/ha): 80%; Post-emergence action against SETVI in % (SETVI [17]; dosage 20 g/ha): 100%; Post-emergence action at 20 g/ha against AMARE in % (AMARE [18]): 100%; Post-emergence action against VIOTR in % (VIOTR [19]; 5 g/ha): 100%; Post-emergence action against VIOTR in % (VIOTR [19]; 20 g/ha): 100%; Pre-emergence action against PHBPU in % (PHBPU [20]): 90%; Post-emergence action against ALOMY in % (ALOMY [21]): 80%; Pre-emergence action against AVEFA (AVEFA [8]; 20 g/ha, scored visually after 3 weeks, 100% = plants have died, 0% = like control plants): 80%; Post-emergence action against MATIN in % (MATIN [13]): 80%; Pre-emergence action against SETVI in % (SETVI [14]; dosage 20 g/ha): 100%; Pre-emergence action against ALOMY (herbicidal activity) (ALOMY [16]): 90%; Post-emergence action against VERPE in % (VERPE [22]): 90%
3 | CCn1nnnc1NC(=O)c1ccc(C(F)F)c(C(=O)NCC(F)F)c1Br [Example 2-230] | 100% | 100% | – | – | 90% | 100% | 80% | 90% | – | 100% | 100% | 80% | – | 80% | 90% | 100% | 100% | 100% | 90% | 90% | Post-emergence action against SETVI in % (SETVI [17]; dosage 20 g/ha): 100%; Post-emergence action at 20 g/ha against AMARE in % (AMARE [18]): 100%; Pre-emergence action against PHBPU in % (PHBPU [20]): 80%; Post-emergence action against ALOMY in % (ALOMY [21]): 90%; Pre-emergence action against DIGSA in % (DIGSA [12]; dosage 80 g/ha): 100%; Post-emergence action against VERPE in % (VERPE [22]): 90%
